The values that follow come from patent publication US20030134901A1, “Lipoxin compounds and their use in treating cell proliferative disorders” (priority 1993, published 2003).

One assay concerns A549 cells. The assay can be described thus: A549 cell proliferation, MTT assay. It is filed as cell-based, human. As for the experimental part:
A microculture 3,(4,5-dimethylthiazoyl-2-yl) 2,5 (diphenyl-tetrazolium bromide) (MTT) assay, (Marshall, N. J., et al. (1995) A critical assessment of the use of microculture tetrazolium assays to measure cell growth and function. Growth Regul. 5: 69-84.), was used to examine the actions of LXs and other eicosanoids on cell proliferation. A549 cells and fibroblasts from exponential-phase maintenance cultures were counted and dispensed within replicate 96-well culture plates in 100 μl volumes of medium (˜2000 cells/well). Following 24 hours at 37° C., the culture medium was removed, and fresh medium (100 μl) containing either the compounds (5-1000 nM) or vehicle (medium plus 0.15% ethanol) was added to 4 replicates for each condition studied and the culture plates were then incubated for up to 96 hours at 37° C. in a 5% CO2 atmosphere. At the end of this period, 25 μl of freshly prepared MTT in HBSS (5 mg/ml) was added to the wells and the plates were incubated for 4 hours at 37° C. Dye solution was aspirated, wells were washed once with HBSS and dye taken up by the cells was extracted in 100 μl of isopropyl alcohol:1 N HCl (96:4, v/v) and quantitated at 570 nm using a microplate reader (Molecular Devices, Menlo Park, Calif.). In some experiments, cells were grown in 12-well culture plates, treated as above and enumerated using a Neubauer hemocytometer. Viability was assessed routinely using trypan blue exclusion assay. For the A549 cells and fibroblasts, a linear relation was established for the MTT values and cell number within the range of the experiments shown (r=0.995, P<0.005). A549 cells grown for 72 hours in the presence of the compounds (5-1000 nM) or vehicle (0.15% EtOH) were lysed with 0.25 N NaOH and the cellular protein content was determined by applying the Bio-Rad (Richmond, Calif.) microassay method using bovine serum albumin as standard. The mean cellular protein content in resting A549 cells was 46.6±1.5 pg/cell.
In general terms: Tetrazolium assays rely on reduction of a dye to a coloured formazan, in cell work by metabolically active cells.

The next assay has as its system human skin fibroblasts. The assay can be described thus: Fibroblast proliferation, MTT assay. The settings on record: 100 nM, n=3. It is filed as cell-based. The text has this:
Human type II epithelial A549 cells from human lung carcinoma and normal human skin fibroblast (breast) were obtained from the American Type Culture Collection (Rockville, Md.). The A549 cell line originated from a human alveolar cell carcinoma and was a useful cell line because it was easily assessable and could be maintained in culture without contaminating tissue macrophages. (Lieber, M., et al (1976) A continuous tumor-cell line from a human lung carcinoma with properties of type II alveolar epithelial cells. Int. J Cancer Fibroblasts were utilized within their limited window of viability and their passage numbers were recorded (results are reported for cells from 3-5 passages). Epithelial A549 cells were seeded into T-75 cm^2 tissue culture flasks and maintained in F-12K medium supplemented with 10% heat-inactivated FBS, penicillin (50 U/mL) and streptomycin (50 (g/mL). Human PMN from healthy donors who had not taken ASA or other medications for at least two weeks were obtained by Ficoll-Hypaque gradient centrifugation and dextran sedimentation, (Böyum A. (1968) Isolation of mononuclear cells and granulocytes from human blood. […] Viability of A549 cells and PMN was determined by their ability to exclude trypan blue and were 95±2 and 97±1%, respectively.
A microculture 3,(4,5-dimethylthiazoyl-2-yl) 2,5 (diphenyl-tetrazolium bromide) (MTT) assay, (Marshall, N. J., et al. (1995) A critical assessment of the use of microculture tetrazolium assays to measure cell growth and function. Growth Regul. 5: 69-84.), was used to examine the actions of LXs and other eicosanoids on cell proliferation. A549 cells and fibroblasts from exponential-phase maintenance cultures were counted and dispensed within replicate 96-well culture plates in 100 μl volumes of medium (˜2000 cells/well). […] Dye solution was aspirated, wells were washed once with HBSS and dye taken up by the cells was extracted in 100 μl of isopropyl alcohol:1 N HCl (96:4, v/v) and quantitated at 570 nm using a microplate reader (Molecular Devices, Menlo Park, Calif.). […]

Assay [1] deals with T1, LXA4 specific binding sites of differentiated HL-60 cells (Homo sapiens, UniProt P25090).
T1 construct: endogenous in cells; host or cells: HL-60 cells differentiated with DMSO, retinoic acid or PMA; intact cells
T1 sequence (P25090 1-351): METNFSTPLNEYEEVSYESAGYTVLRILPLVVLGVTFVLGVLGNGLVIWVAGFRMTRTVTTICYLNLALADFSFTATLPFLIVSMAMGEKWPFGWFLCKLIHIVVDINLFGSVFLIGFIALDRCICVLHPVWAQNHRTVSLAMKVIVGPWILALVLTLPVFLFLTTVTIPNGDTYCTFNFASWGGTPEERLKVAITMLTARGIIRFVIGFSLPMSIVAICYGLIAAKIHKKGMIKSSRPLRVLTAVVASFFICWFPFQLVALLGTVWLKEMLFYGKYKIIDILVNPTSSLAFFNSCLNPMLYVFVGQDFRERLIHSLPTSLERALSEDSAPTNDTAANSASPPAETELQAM
The assay can be described thus: 3H-LXA4 specific binding to differentiated HL-60 cells. The settings on record: competition, competitor 300 nM where printed. How it is done:
Preparation of [11,12-^3H]LXA4. Tritiation of 11,12-acetylenic LXA4 methyl ester was carried out under a custom tritiation service (NET-259:92-2326) by New England Nuclear (Boston, Mass.). Briefly, 11,12-acetylene methyl ester was characterized by UV absorbance and reverse-phase HPLC as in (Nicolaou, K. C. et al. (1985) J. Am. Chem. Soc. 107:7515) and exposed to tritium atmosphere in methylene chloride at room temperature. This incubation was stirred in the presence of Lindlar catalyst (1.0 mg from Fluka Chemicals) for˜1 h. The resulting mixture was stored in methanol and isolated using RP-HPLC. Tritiated products were chromatographed as methyl esters utilizing a gradient HPLC system equipped with a photodiode array rapid spectral detector (Serhan, C. N., Methods in Enzymology: Arachidonate Related Lipid Mediators, in Murphy R. C., Fitzpatrick, F. (eds.), vol. 187. Orlando, Fla., Academic, (1990), p. 167). This mixture contained both [11,12-^3H]LXA4 and [11,12-^3H]-11-trans-LXA4 methyl esters (˜1:3 ratio) as determined by coelution with synthetic standards. After RP-HPLC, fractions containing [11,12-^3H]LXA4 were collected, and extracted into ethyl acetate. The free acid was prepared by LiOH saponification (Fiore, S. et al. (1992) J. Biol. Chem. 267:16168). Material from these fractions, when injected into UV-electrochemical detection HPLC, gave greater than 90% of radioactivity associated with a tetraene-containing product that coeluted with synthetic LXA4. Materials that eluted with the retention time of authentic LXA4 in two HPLC systems were taken for binding experiments. The specific activity calculated for [11,12-^3H]LXA4 was 40.5 Ci/mmole.
Cell cultures and differentiation. HL-60 cells were seeded in RPMI medium supplemented with 100 U/ml penicillin, 100 μg/ml streptomycin, and 10% fetal calf serum (Hyclone, Logan, Utah), incubated at 37° C. with 5% CO2 atmosphere in 250 ml flasks. Individual flasks containing ˜[…] next received dimethyl sulfoxide (DMSO) (1.12% v/v, 120 h) or retinoic acid (RA) (1 μM, 120 h) or phorbol myristate acetate (PMA) (20 nM, 48 h). Before performing binding assays, cells were washed twice in phosphate buffered saline (PBS), Ca^2+- and Mg^2+-free, enumerated and suspended at 20×10^6 cells/ml in Tris buffer (10 mM), pH 7.4 (Fiore, S. et al.(1992) J. Biol. Chem. 267:16168). Nitro blue tetrazolium reduction was performed to monitor induction of polymorphonuclear phenotype as in (Imaizumi, M. and Breitman, T. R. (1986) Blood 67:1273), and cell adherence was determined for induction of macrophage-like phenotype (Collins, S. J. (1987) Blood 70:1273). Human umbilical vein endothelial cells (HUVEC) maintained in culture third passage were obtained from Dr. M. Gimbrone (Brigham and Women's Hospital Department of Pathology).
Ligand binding. ^3H-LXA4 and ^3H-LTB4 binding was performed essentially as in Fiore, S. et al.(1992) J. Biol. Chem. 267:16168. After suspending cells in Tris buffer 10 mM (pH 7.4, Ca^2+ 2.5 mM, Mg^2+ 1.2 mM), aliquots (0.5 ml) were incubated (20 min at 4° C.) with ^3H- ligands alone (0.3 nM) or in the presence of increasing concentrations of homoligands or other compounds (3-300 nM). The incubations were rapidly centrifuged (60 sec, 12,000 g) on silicon oil (d=1.028), and cell-associated radioactivity was determined by liquid scintillation counting (Wallac 1409, Pharmacia, Piscataway, N.J.). Binding experiments with HUVEC cells were performed in 12 well plates with 3.5×10^5 cells/well. After 10 min, wells were washed twice with PBS and cell-associated label was recovered by adding glacial acetic acid (0.5 ml). Results obtained from these assays were submitted for further analysis using the Ligand program (Elsevier-Biosoft, Cambridge, UK).

A word on the inhibition: it is the percentage by which the read-out fell short of the control. Lower therefore signals little suppression. By % inhibition is commonly meant the change of the read-out against control, counted positive when it falls. Higher therefore signals strong suppression.

Consider `C[C@@H]1C[C@H]2[C@@H]3CCC4=CC(=O)C=C[C@]4(C)[C@@]3(F)[C@@H](O)C[C@]2(C)[C@@]1(O)C(=O)CO` [Dexamethasone], for which the inhibition at 0.1 µM is 42.1 ± 5.4% in the assay on A549 cells (Homo sapiens, A549, 10^−7 M, 72 hours at 37° C., mean ± SEM, 3 to 7 experiments) and 29.7% in the assay on human skin fibroblasts (Homo sapiens, Skin fibroblast). Besides, in the assay with A549 cells (Homo sapiens, A549, MTT assay, 72 hours, read-out: half maximum inhibition (IC50) of A549 cell proliferation), the IC50 was about 7 nM.
As for `CCCCC[C@H](O)[C@H](O)/C=C/C=C/C=C\C=C\[C@@H](O)CCCC(=O)O` [LXB4, (5S, 14R, 15S)-trihydroxy-6E, 8Z, 10E, 12E-eicosatetraenoic acid], the “displacement of 3H-LXA4 specific binding” value in assay [1] was “Neither LXB4, LTB4, nor trihydroxyheptanoic acid (methyl ester) (300 nM) were able to displace”. Further, in the assay on A549 cells (1 μM, after 72 and 96 hours of treatment), the “inhibition of A549 cell proliferation over time” value was “inhibited A549 cell proliferation”. In the assay with A549 cells (10^−7 M, 72 hours at 37° C., mean ± SEM, 3 to 7 experiments), the “% inhibition” value is on record as 30.0 ± 8.5%. In addition, the “times more active than either LXA4 or dexamethasone” value with A549 cells (concentrations of 0.5 and 1 μM, 72 hours) turned out to be 3 times. The molecule also returned an inhibition proliferation with A549 cells (equimolar levels (100 nM), Table 1) of about 34%. Besides, the “inhibition of proliferation of fibroblasts” value with human skin fibroblasts stood at 38.0%.
